Values quoted from earlier work, collected in patent US20090196863A1, “METHOD OF ANTIOXIDATION AND ANTIOXIDANT-FUNCTIONING WATER” (MIZ CO., LTD., priority 2001, published 2009).

Conditions: normal temperature (20° C.) and atmospheric pressure

saturated solvent concentration: approximately 1.6 mg/L
SMILES: [HH] [molecular hydrogen]
